Measured values: US6531477B1, “6-substituted pyrazolo [3,4-d] pyrimidin-4-ones useful as cyclin dependent kinase inhibitors” (DuPont Pharmaceuticals Company, priority 1998, dated 2003)

First: CCc1[nH]n(-c2c(Cl)cc(Cl)cc2Cl)c2nc(C(O)c3ccccc3)nc(=O)c1-2 (racemic) [Example 117, (+/−)-1-(2,4,6-Trichlorophenyl)-3-ethyl-6-(α-hydroxybenzyl)pyrazolo[3,4-d]pyrimidin-4-one]
Second: CSc1[nH]n(-c2c(Cl)cc(Cl)cc2Cl)c2nc(Cc3cccc(O)c3)nc(=O)c1-2 [Example 2, 1-(2,4,6-Trichlorophenyl)-3-(methylthio)-6-(3-hydroxybenzyl)pyrazolo[3,4-d]pyrimidin-4-one]
The melting point of the first is lower: 246 to 248 °C for the first, 264 to 266 °C for the second.

First: COc1cccc(Cc2nc3n(-c4c(Cl)cc(Cl)cc4Cl)[nH]c(SC)c-3c(=O)n2)c1 [Example 1, 1-(2,4,6-Trichlorophenyl)-3-(methylthio)-6-(3-methoxybenzyl)pyrazolo[3,4-d]pyrimidin-4-one]
Second: COc1cccc(Cc2nc3n(-c4c(Cl)cc(C=O)cc4Cl)[nH]c(C(C)C)c-3c(=O)n2)c1 [Example 138, 1-(2,6-Dichloro-4-formylphenyl)-3-isopropyl-6-(3-methoxybenzyl)pyrazolo[3,4-d]pyrimidin-4-one]
The melting point of the first is higher: 245 to 248 °C for the first, 212 to 214 °C for the second.

Compared with CSc1nn(-c2c(Cl)cc(Cl)cc2Cl)c2nc(Cc3ccncc3)[nH]c(=O)c12 [Example 5], CC(C)c1nn(-c2c(Cl)cc(Cl)cc2Cl)c2nc(Cc3ccncc3)[nH]c(=O)c12 [Example 61] is lower in melting point: 283 to 287 °C for the first, 273 to 275 °C for the second.

First: COc1ccc(Cc2nc3c(c(SC)nn3-c3c(Cl)cc(Cl)cc3Cl)c(=O)[nH]2)cc1OC [Example 6]
Second: COc1ccc(Cc2nc3c(c(SC)nn3-c3c(Cl)cc(Cl)cc3Cl)c(=O)[nH]2)cc1 [Example 8]
The melting point of the first is lower: 226 to 230 °C for the first, 263 to 267 °C for the second.

First: CSc1nn(-c2c(Cl)cc(Cl)cc2Cl)c2nc(Cc3cccc([N+](=O)[O-])c3)[nH]c(=O)c12 [Example 7]
Second: CSc1nn(-c2c(Cl)cc(Cl)cc2Cl)c2nc(Cc3ccc(O)cc3)[nH]c(=O)c12 [Example 9]
The melting point of the first is lower: 243 to 255 °C for the first, 294 to 296 °C for the second.

First: CSc1nn(-c2c(Cl)cc(Cl)cc2Cl)c2nc(Cc3ccc4c(c3)OCO4)[nH]c(=O)c12 [Example 13]
Second: CSc1nn(-c2c(Cl)cc(Br)cc2Cl)c2nc(Cc3ccc(O)cc3)[nH]c(=O)c12 [Example 180]
The melting point of the first is higher: 257 to 260 °C for the first, 255 to 256 °C for the second.

CCc1nn(-c2c(Cl)cc(Cl)cc2Cl)c2nc(Cc3c[nH]c4ccccc34)[nH]c(=O)c12 [Example 18] and CCc1nn(-c2c(Cl)cc(Cl)cc2Cl)c2nc(Cc3c[nH]c4ccc(OC)cc34)[nH]c(=O)c12 [Example 40] cannot be ordered by melting point: 296 to 299 °C for the first, 295 to 298 °C for the second.

First: CCc1nn(-c2c(Cl)cc(Cl)cc2Cl)c2nc(Cc3cc(OC)c(OC)c(OC)c3)[nH]c(=O)c12 [Example 24]
Second: CCc1nn(-c2c(Cl)cc(Cl)cc2Cl)c2nc(Cc3ccc(O)c([N+](=O)[O-])c3)[nH]c(=O)c12 [Example 26]
The melting point of the first is lower: 224 to 226 °C for the first, 263 to 266 °C for the second.

First: CCc1nn(-c2c(Cl)cc(Cl)cc2Cl)c2nc(Cc3cccc(CC(=O)O)c3)[nH]c(=O)c12 [Example 47]
Second: CCc1nn(-c2c(Cl)cc(Br)cc2Cl)c2nc(Cc3cccc(O)c3)[nH]c(=O)c12 [Example 170]
The melting point of the first is lower: 192 to 194 °C for the first, 242 to 244 °C for the second.

Compared with CC(C)c1nn(-c2c(Cl)cc(Cl)cc2Cl)c2nc(Cc3ccc(N)cc3)[nH]c(=O)c12 [Example 52], CC(C)c1nn(-c2c(Cl)cc(Cl)cc2Cl)c2nc(Cc3ccc(Br)cc3)[nH]c(=O)c12 [Example 59] is higher in melting point: 223 to 225 °C for the first, 229 to 230 °C for the second.

Compared with COc1cc(Cc2nc3c(c(C(C)C)nn3-c3c(Cl)cc(Cl)cc3Cl)c(=O)[nH]2)ccc1N [Example 54], Cc1ccc(Cc2nc3c(c(C(C)C)nn3-c3c(Cl)cc(Cl)cc3Cl)c(=O)[nH]2)cc1 [Example 62] is lower in melting point: 238 to 240 °C for the first, 205 to 206 °C for the second.

CC(C)c1nn(-c2c(Cl)cc(Cl)cc2Cl)c2nc(Cc3ccccn3)[nH]c(=O)c12 [Example 60] and CC(C)c1nn(-c2c(Cl)cc(Cl)cc2Cl)c2nc(Cc3cccnc3)[nH]c(=O)c12 [Example 64] fall in the same range of melting point: 214 to 215 °C for the first, 214 to 215 °C for the second.

First: Cc1ccccc1Cc1nc2c(c(C(C)C)nn2-c2c(Cl)cc(Cl)cc2Cl)c(=O)[nH]1 [Example 63]
Second: Cc1ccncc1Cc1nc2c(c(C(C)C)nn2-c2c(Cl)cc(Cl)cc2Cl)c(=O)[nH]1 [Example 65]
The melting point of the first is lower: 194 to 195 °C for the first, 225 to 227 °C for the second.

CNc1ccc(Cc2nc3c(c(C(C)C)nn3-c3c(Cl)cc(Cl)cc3Cl)c(=O)[nH]2)cc1 [Example 67] and CC(C)c1nn(-c2c(Cl)cc(Cl)cc2Cl)c2nc(Cc3cnccc3Cl)[nH]c(=O)c12 [Example 69] cannot be ordered by melting point: 244 to 246 °C for the first, 245 to 248 °C for the second.

Compared with O=c1[nH]c(Cc2ccc3[nH]ncc3c2)nc2c1c(C1CC1)nn2-c1c(Cl)cc(Cl)cc1Cl [Example 72], O=c1[nH]c(Cc2ccc([N+](=O)[O-])c(O)c2)nc2c1c(C1CC1)nn2-c1c(Cl)cc(Cl)cc1Cl [Example 76] is lower in melting point: 274 to 283 °C for the first, 259 to 260 °C for the second.

First: COc1ccc(Cc2nc3c(c(C(F)(F)F)nn3-c3c(Cl)cc(Cl)cc3Cl)c(=O)[nH]2)cc1 [Example 82]
Second: CCc1nn(-c2c(Cl)cc(C(F)(F)F)cc2Cl)c2nc(Cc3ccc(OC)cc3)[nH]c(=O)c12 [Example 168]
The melting point of the first is higher: 263 to 265 °C for the first, 240 to 241 °C for the second.

Compared with CC(C)c1[nH]n(-c2c(Cl)cc(Cl)cc2Cl)c2nc(Cc3ccc(N(C(=O)OC(C)(C)C)C(=O)[C@@H]4CCCN4)cc3)nc(=O)c1-2 [Example 113, (S)-1-(2,4,6-Trichlorophenyl)-3-isopropyl-6-(4-(N-t-butoxycarbonylprolinamido)benzyl)pyrazolo[3,4-d]pyrimidin-4-one], CC(C)c1[nH]n(-c2c(Cl)cc(Cl)cc2Cl)c2nc(Cc3ccc(NC(=O)OCCN(C)C)cc3)nc(=O)c1-2 [Example 133, 1-(2,4,6-Trichlorophenyl)-3-isopropyl-6-(4-(2-(dimethylamino)ethoxycarbonylamino)benzyl)pyrazolo[3,4-d]pyrimidin-4-one] is lower in melting point: 225 to 226 °C for the first, 218 to 220 °C for the second.

First: CCOC(=O)Cc1ccc(Cc2nc3n(-c4c(Cl)cccc4Cl)[nH]c(C(C)C)c-3c(=O)n2)cc1 [Example 122, 1-(2,6-Dichlorophenyl)-3-isopropyl-6-(4-(carbethoxymethyl)benzyl)pyrazolo[3,4-d]pyrimidin-4-one]
Second: CC(C)c1[nH]n(-c2c(Cl)cccc2Cl)c2nc(Cc3ccc(CC(=O)O)cc3)nc(=O)c1-2 [Example 123, 1-(2,6-Dichlorophenyl)-3-isopropyl-6-(4-(carboxymethyl)benzyl)pyrazolo[3,4-d]pyrimidin-4-one]
The melting point of the first is lower: 168 to 169 °C for the first, 212 to 214 °C for the second.

Compared with CC(C)c1[nH]n(-c2c(Cl)cccc2Cl)c2nc(Cc3ccc(CC(=O)NCCN(C)C)cc3)nc(=O)c1-2 [Example 124, 1-(2,6-Dichlorophenyl)-3-isopropyl-6-(4-(2-(N,N-dimethylamino)ethylaminocarbonylmethyl)benzyl)pyrazolo[3,4-d]pyrimidin-4-one], Cc1cccc(Cl)c1-n1[nH]c(C(C)C)c2c(=O)nc(Cc3ccc(N)cc3)nc1-2 [Example 127, 1-(2-Chloro-6-methylphenyl)-3-isopropyl-6-(4-aminobenzyl)pyrazolo[3,4-d]pyrimidin-4-one] is higher in melting point: 170 to 172 °C for the first, 206 to 207 °C for the second.

First: CC(C)c1nn(-c2ccccc2Cl)c2nc(Cc3cccc(O)c3)[nH]c(=O)c12 [Example 143]
Second: CCc1nn(-c2ccccc2Br)c2nc(Cc3cccc(O)c3)[nH]c(=O)c12 [Example 153]
The melting point of the first is higher: 227 to 228 °C for the first, 199 to 201 °C for the second.

First: CSc1nn(-c2ccccc2Cl)c2nc(Cc3ccc(O)cc3)[nH]c(=O)c12 [Example 149]
Second: COc1ccc(Cc2nc3c(c(SC)nn3-c3ccccc3Cl)c(=O)[nH]2)cc1 [Example 150]
The melting point of the first is higher: 243 to 244 °C for the first, 227 to 228 °C for the second.

First: CCc1nn(-c2ccccc2Br)c2nc(Cc3cccc(OC)c3)[nH]c(=O)c12 [Example 151]
Second: CCc1nn(-c2ccccc2F)c2nc(Cc3cccc(OC)c3)[nH]c(=O)c12 [Example 154]
The melting point of the first is lower: 178 to 180 °C for the first, 193 to 194 °C for the second.

First: CCc1nn(-c2ccccc2Br)c2nc(Cc3ccc(N)cc3)[nH]c(=O)c12 [Example 152]
Second: CCc1nn(-c2ccccc2F)c2nc(Cc3ccc(N)cc3)[nH]c(=O)c12 [Example 157]
The melting point of the first is higher: 246 to 249 °C for the first, 231 to 233 °C for the second.

Compared with CCc1nn(-c2ccccc2F)c2nc(Cc3cccc(O)c3)[nH]c(=O)c12 [Example 155], CCc1nn(-c2c(Cl)cccc2Cl)c2nc(Cc3cccc(O)c3)[nH]c(=O)c12 [Example 173] is higher in melting point: 235 to 237 °C for the first, 242 to 244 °C for the second.

First: CCc1nn(-c2c(Cl)cc(C(F)(F)F)cc2Cl)c2nc(Cc3cccc(OC)c3)[nH]c(=O)c12 [Example 166]
Second: CCc1nn(-c2c(Cl)cc(Br)cc2Cl)c2nc(Cc3cccc(OC)c3)[nH]c(=O)c12 [Example 174]
The melting point of the first is lower: 192 to 193 °C for the first, 232 to 233 °C for the second.

First: CCc1nn(-c2c(Cl)cc(Br)cc2Cl)c2nc(Cc3ccc(O)cc3)[nH]c(=O)c12 [Example 169]
Second: CCc1nn(-c2c(Cl)cc(Br)cc2Cl)c2nc(Cc3ccc(OC)cc3)[nH]c(=O)c12 [Example 175]
The melting point of the first is higher: 284 to 286 °C for the first, 252 to 253 °C for the second.

Compared with CCc1nn(-c2c(Cl)cccc2Cl)c2nc(Cc3ccc(O)cc3)[nH]c(=O)c12 [Example 171], CCc1nn(-c2c(Cl)cccc2Cl)c2nc(Cc3ccc(OC)cc3)[nH]c(=O)c12 [Example 176] is lower in melting point: 262 to 263 °C for the first, 220 to 222 °C for the second.

First: CCc1nn(-c2c(Cl)cccc2Cl)c2nc(Cc3cccc(OC)c3)[nH]c(=O)c12 [Example 177]
Second: CSc1nn(-c2c(F)cccc2Cl)c2nc(Cc3cccc(O)c3)[nH]c(=O)c12 [Example 179]
The melting point of the first is lower: 186 to 187 °C for the first, 252 to 253 °C for the second.

First: CSc1nn(-c2c(F)cccc2Cl)c2nc(Cc3ccc(O)cc3)[nH]c(=O)c12 [Example 178]
Second: COc1ccc(Cc2nc3c(c(SC)nn3-c3c(F)cccc3Cl)c(=O)[nH]2)cc1 [Example 181]
The melting point of the first is higher: 267 to 268 °C for the first, 193 to 194 °C for the second.

In the case of CC(C)c1nn(-c2c(Cl)cc(Cl)cc2Cl)c2nc(Cc3ccc(N)c(O)c3)[nH]c(=O)c12 [Example 55], the melting point is reported as 210 to 217 °C (dec.).
